{"source": "patent US20220106595A1", "about": "“ANTIBACTERIAL ANTISENSE AGENTS” (priority 2018, published 2022)", "key": {"E. coli (ATCC25922)": {"test_system": "E. coli (ATCC25922)", "test": "Urinary tract infection mouse model, E. coli (ATCC25922)", "assay_type": "in vivo", "conditions": "48 h post treatment", "experimental": "Efficacy of PED-011 Against E. coli (ATCC25922) in the Urinary Tract Infection Mouse Model\nFemale BALB/c mice were infected trans-ureth rally with ˜ 5×10^8 CFU/animal E. coli (ATCC 25922). Four hours post infection animals were treated twice daily (Q12 h) orally with ciprofloxacin at 30 mg/kg and with single IV doses of PED-011 at 10 and 30 mg/kg (u.i.d). Ten animals from each group were terminated at 48 h post treatment, bladder and kidneys were collected to determine the bacterial load.\nThe vehicle for Ciprofloxacin was 0.25% of Carboxy Methyl Cellulose (CMC) (w/v) and PBS was used for PED-011. PED-011 was dissolved in PBS at 2 & 6 mg/mL. At four hours post infection, animals were treated with the first oral dose of ciprofloxacin and the single dose of PED-011 (10 and 30 mg/kg, IV, single bolus dose, 5 ml/kg dose volume). Animals received further doses of oral ciprofloxacin as per the dosing schedule."}, "[1]": {"test_system": "E. coli (CFT073, ATCC®700928™)", "test": "Urinary tract infection mouse model, uropathogenic E. coli (CFT073, ATCC 700928)", "assay_type": "in vivo", "experimental": "Efficacy of PED-011 Against E. coli (CFT073, ATCC®700928™) in the Urinary Tract Infection Mouse Model; Challenge with a Uropathogenic Strain\nFemale BALB/c mice were infected trans-urethrally with ˜5×10^8 CFU/animal E. coli (CFT073, ATCC®700928™). Twenty-four hours post infection animals were treated twice daily (Q12 h) orally with ciprofloxacin at 30 mg/kg and with single IV doses of PED-011 at 3, 10 and 30 mg/kg (u.i.d). Ten animals from each group were terminated at 48 h post treatment (72 h post infection); bladder and kidneys were collected to determine the bacterial load.\nThe vehicle for Ciprofloxacin was 0.25% of Carboxy Methyl Cellulose (CMC) (w/v) and PBS was used for PED-011. PED-011 was dissolved in PBS at 0.6, 2 & 6 mg/mL. At twenty-four hours post infection, animals were treated with the first oral dose of ciprofloxacin and the single dose of PED-011 (10 and 30 mg/kg, IV, single bolus dose, 5 ml/kg dose volume). Animals received further doses of oral ciprofloxacin as per the dosing schedule."}, "A. baumannii (ATCC19606)": {"test_system": "A. baumannii (ATCC19606)", "test": "Neutropenic lung infection model in mice, A. baumannii (ATCC19606)", "assay_type": "in vivo", "conditions": "FIG. 7"}, "E. coli (ATCC BAA-2340)": {"test_system": "E. coli (ATCC BAA-2340)", "test": "Urinary tract infection mouse model, resistance strain E. coli (ATCC BAA-2340)", "assay_type": "in vivo", "conditions": "48 h post treatment", "experimental": "Efficacy of PED-011 Against E. coli (ATCC BAA-2340) in the Urinary Tract Infection Mouse Model; Challenge with a Resistance Strain\nFemale BALB/c mice were infected trans-urethrally with ˜5×10^8 CFU/animal E. coli (ATCC BAA-2340). Twenty-four hours post infection animals were treated twice daily (Q12 h) orally with ciprofloxacin at 30 mg/kg and with single IV doses of PED-011 at 10 and 30 mg/kg (u.i.d). Ten animals from each group were terminated at 48 h post treatment; bladder and kidneys were collected to determine the bacterial load.\nThe vehicle for Ciprofloxacin was 0.25% of Carboxy Methyl Cellulose (CMC) (w/v) and PBS was used for PED-011. PED-011 was dissolved in PBS at 2 & 6 mg/mL. At twenty-four hour post infection, animals were be treated with the first oral dose of ciprofloxacin and the single dose of PED-011 (10 and 30 mg/kg, IV, single bolus dose, 5 ml/kg dose volume). Animals received further doses of oral ciprofloxacin as per the dosing schedule."}, "[2]": {"test": "Log D determination (shake-flask, PBS/1-octanol)", "assay_type": "physicochemical", "conditions": "PBS pH 7.4 / 1-octanol", "experimental": "(v) Log D Determinations:\nLog D(PBS) determinations is performed in 96 well microtitre plates using a miniaturised “shake-flask” method. […] The plates are then capped and mixed vigorously for 1 hour on a microtitre plate shaker, after which they were left to stand, allowing the PBS and octanol phases to separate.\nWhere AUCstd and AUCpbs are the peak areas from the standard and test ion chromatograms respectively."}}, "data": [{"molecule": "O=C(O)c1cn(C2CC2)c2cc(N3CCNCC3)c(F)cc2c1=O", "note": "[Ciprofloxacin, reference compound]", "values": [{"measurement": "antibacterial effect in bladder (Log10 CFU/g) vs 4 h control and vehicle control", "setting": "E. coli (ATCC25922); 30 mg/kg, p.o., Q12 h, p<0.05, FIG. 1", "result": "significant antibacterial effect"}, {"measurement": "antibacterial effect in kidneys (Log10 CFU/g) vs 4 h control and vehicle control", "setting": "E. coli (ATCC25922); 30 mg/kg, p.o., Q12 h, p<0.05, FIG. 2", "result": "significant antibacterial effect"}, {"measurement": "bactericidal activity in bladder wrt 24 h PI control and vehicle control", "setting": "[1]; 30 mg/kg, p.o., b.i.d. Q12h, 72 h post infection, FIG. 3", "result": "significant (p<0.05) bactericidal activity"}, {"measurement": "bactericidal activity in kidney wrt 24 h PI control and vehicle control", "setting": "[1]; 30 mg/kg, p.o., b.i.d. Q12h, 72 h post infection, p<0.05, FIG. 4", "result": "significant bactericidal activity"}, {"measurement": "antibacterial effect in lung vs 52 h vehicle control", "setting": "A. baumannii (ATCC19606); 10 mg/kg, po, Q12 h, p<0.05", "result": "significant antibacterial effect"}, {"measurement": "antibacterial effect in bladder vs 24 h control and vehicle control", "setting": "E. coli (ATCC BAA-2340); 30 mg/kg, p.o., Q12 h, p<0.05, FIG. 5", "result": "significant antibacterial effect"}, {"measurement": "antibacterial effect in kidneys vs 24 h control and vehicle control", "setting": "E. coli (ATCC BAA-2340); 30 mg/kg, p.o., Q12 h, p<0.05, FIG. 6", "result": "significant antibacterial effect"}]}, {"molecule": "PED-011: Linker-6 (Sugar-L-Ala-NH(CH2)3CO) coupled to PMO PED-1, CTT CGA TAG TG (Sequence ID 57, AcpP) (CTTCGATAGTG; all phosphorodiamidate morpholino (PMO); Linker-6 sugar-L-Ala conjugate attached, position not given here, further chemistry not fully specified)", "values": [{"measurement": "antibacterial activity in bladder vs 4 h and vehicle control", "setting": "E. coli (ATCC25922); 10 mg/kg, IV, single dose, FIG. 1", "result": "not significantly effective"}, {"measurement": "antibacterial activity in kidneys vs 4 h PI control and vehicle control", "setting": "E. coli (ATCC25922); 10 mg/kg, IV, single dose, p<0.05, FIG. 2", "result": "significant antibacterial activity"}, {"measurement": "antibacterial activity in bladder vs 4 h PI control and vehicle control", "setting": "E. coli (ATCC25922); 30 mg/kg, IV, single dose, p<0.05, FIG. 1", "result": "significant antibacterial activity"}, {"measurement": "antibacterial activity in kidneys vs 4 h PI control and vehicle control", "setting": "E. coli (ATCC25922); 30 mg/kg, IV, single dose, p<0.05, FIG. 2", "result": "significant antibacterial activity"}, {"measurement": "antibacterial effect in kidney compared to vehicle control", "setting": "[1]; 30 mg/kg, IV, 1 dose, p<0.05, FIG. 4", "result": "significant effect"}, {"measurement": "mean bacterial counts in bladder", "setting": "[1]; 3, 10 and 30 mg/kg, IV, 1 dose, FIG. 3", "result": "dose dependent mean reduction in bacterial counts"}, {"measurement": "antibacterial effect in kidney compared to vehicle control", "setting": "[1]; 3, 10 and 30 mg/kg, IV, 1 dose, FIG. 4", "result": "dose dependent antibacterial effect"}, {"measurement": "antibacterial effect in bladder wrt vehicle control", "setting": "[1]; 3, 10 and 30 mg/kg, IV, 1 dose, p>0.05, FIG. 3", "result": "did not show significant antibacterial effect"}, {"measurement": "Log D7.4", "setting": "[2]", "result": 0.74}, {"measurement": "antibacterial activity in bladder vs 4 h and vehicle control", "setting": "E. coli (ATCC BAA-2340); 10 mg/kg, IV, single dose, FIG. 5", "result": "not significantly effective"}, {"measurement": "antibacterial activity in kidneys vs 4 h PI control and vehicle control", "setting": "E. coli (ATCC BAA-2340); 10 mg/kg, IV, single dose, p<0.05, FIG. 6", "result": "significant antibacterial activity"}, {"measurement": "antibacterial activity in bladder vs 24 h PI control and vehicle control", "setting": "E. coli (ATCC BAA-2340); 30 mg/kg, IV, single dose, FIG. 5", "result": "a reduction but not statistically significant antibacterial activity"}, {"measurement": "antibacterial activity in kidneys vs 24 h PI control and vehicle control", "setting": "E. coli (ATCC BAA-2340); 30 mg/kg, IV, single dose, p<0.05, FIG. 6", "result": "significant antibacterial activity"}]}, {"molecule": "PED-012: Linker-6 coupled to PMO PED-2, TCA AAT GAG GC (Sequence ID 91, ftsZ) (TCAAATGAGGC; all phosphorodiamidate morpholino (PMO); Linker-6 conjugate attached at 3' morpholino end, 5' end group not given here, further chemistry not fully specified)", "values": [{"measurement": "antibacterial activity in lung vs vehicle control at 52 h PI", "setting": "A. baumannii (ATCC19606); 10 mg/kg, IN, single dose, p>0.05", "result": "not significantly effective"}, {"measurement": "antibacterial activity in lung vs 52 h vehicle control", "setting": "A. baumannii (ATCC19606); 30 mg/kg, IN, single dose, p<0.05", "result": "significant antibacterial activity"}]}]}
